Consider 2 compounds from patent US8093260B2, “Aporphine derivatives and pharmaceutical use thereof” (Standard Chem. & Pharm. Co., Ltd., priority 2008, dated 2012).

Test [1] concerns lipid peroxidase. Nature of the test: Activity in inhibiting lipid peroxidase (malondialdehyde quantitation). In kind it is biochemical, Dunkin Hartley Guinea pig. To be noted: 10 μM; guinea pig liver microsomes; 20 minutes/37° C. The method, then:
The assay was executed with reference to the method described in Biochem Biophys Res Commun. 1986; 135(3): 1015-1021.
• (a) Source: Dunkin Hartley Guinea pig liver microsomes • (b) Substrate: Polyunsaturated fatty acid • (c) Vehicle: 1% DMSO • (d) Pre-Incubation Time/Temp: 15 minutes/37° C. • (e) Incubation Time/Temp: 20 minutes/37° C. • (f) Incubation Buffer: 0.25 M Potassium Phosphate, pH 7.4, 0.1 mM EDTA • (g) Quantitation Method: Spectrophotometric quantitation of Malondialdehyde
A general note: Liver microsomes are a subcellular fraction often used to study metabolism.

A short description of test [2]: Free radical scavenging of AAPH (β-phycoerythrin fluorescence decay). To be noted: compound 5×10^−6 M, AAPH 25 mM, β-phycoerythrin 5 nM, FIG. 2. Format: biochemical. The text has this: In order to evaluate the effect of test compounds in scavenging hydrophilic peroxy radical, the experiment was executed with reference to the method described by Tsuchiya et al. (Methods Enzymol 1992; 213: 460-472). In the experiment, peroxides will react with fluorescent substances and thus inflect observed fluorescence intensity. Thereby, the effect of test compounds in free radical scavenging can be evaluated by measuring the variation of the fluorescence intensity after the addition of test compounds.
First, to a silicate tube was added a phosphate solution (2 ml, pH 7.4), followed by the addition of β-phycoerythrin (5 nM) to increase relative fluorescence intensity. After 5 minutes, 2,2′-azobis(2-amidinopropane)dihydrochloride (25 mM, AAPH) was added therein. Subsequently, through a fluorescent spectrometry (Shimadzu RF-5301PC, Japan), the fluorescence intensity of β-phycoerythrin was measured by excitation at 540 nm and emission at 570 nm. Then, the test compounds (5×10^−6 M) was further added therein to observe the variation of the fluorescence intensity, in which 0.1% DMSO was taken as a control group.

Test [3] concerns vascular smooth muscle cells of rats. Nature of the test: Protecting activity in vascular smooth muscle cells against H2O2 (MTT). In kind it is cell-based, rat. To be noted: compound 10 μM, 30 minutes before H2O2 200 μM, 24 hours, FIG. 3. The method, then:
The vascular smooth muscle cells of rats (2×10^4 cells/mL×1 mL) were quantitatively seeded in 24-well plates, and cultured in Dulbecco's modified Eagle medium (DMEM) with 10% fetal bovine serum (FBS) for 24 hours to achieve cell adhesion. After cell adhesion, the DMEM medium with 10% fetal bovine serum was replaced with a fresh DMEM medium with 0.1% fetal bovine serum to perform cell culture for 48 hours.
Next, the test compounds were added in the cultures (final concentration: 0.1, 1, 10 μM). After 30 minutes, H2O2 (200 μM) was added therein to perform reaction for 24 hours in an incubator. Subsequently, in a light-proof environment, MTT (100 μL) was added into each well to perform reaction at 37° C. for 3 hours. The supernatant liquor was removed and then isopropanol (500 μL) was added, followed by shaking for 10 minutes. After standing for 10 minutes, supernatant liquor (200 μL) was transferred into 96-well plates. Finally, the absorbance values (O.D.) were monitored at 540 nm (OD540) and 630 nm (OD630). Based on the measured absorbance values (OD540-OD630), the effect of these test compounds on cell growth can be evaluated, as shown in FIG. 3.

In the case of `COc1cc2c(cc1OC)-c1c(O)c(OC)cc3c1C(C2)N(CC(O)COc1ccccc1OC)CC3` (stereo not drawn) [Compound 1], in test [1], the “Inhibition (%)” value was 64%. For the same compound, the “protection of β-phycoerythin from peroxy radical AAPH-induced damage (fluorescence decay)” value in test [2] is listed as “delay β-phycoerythin fluorescence degradation”. In test [3], the “inhibition of H2O2 damage to vascular smooth muscle cells (cell viability, MTT)” value is on record as “significantly inhibit H2O2 to damage vascular smooth muscle cells”.
Consider `COc1cc2c(cc1OC)-c1c(O)c(OC)cc3c1C(C2)N(CC(=O)Nc1c(C)cccc1C)CC3` (stereo not drawn) [Compound 2], for which, in test [1], the “Inhibition (%)” value was 70%. Moreover, in test [2], the “protection of β-phycoerythin from peroxy radical AAPH-induced damage (fluorescence decay)” value is on record as “delay β-phycoerythin fluorescence degradation”. For the same compound, in test [3], the “inhibition of H2O2 damage to vascular smooth muscle cells (cell viability, MTT)” value was “slightly inhibit H2O2 to damage vascular smooth muscle cells”.
